Measured values taken from publication PMC11887051, “Discovery of ONO-2920632 (VU6011887): A Highly Selective and CNS Penetrant TREK-2 (TWIK-Related K+ Channel 2) Preferring Activator In Vivo Tool Compound” (ACS Chemical Neuroscience, 2025).
Entries after “also recorded” stand apart in the source; their conditions may differ.

What was measured:
ICR male mice = test: acetic acid writhing assay; format: in vivo; settings: mouse, 0.3, 1, 3 mg/kg PO, 2 h before acetic acid IP, writhes counted 30 min
Experimental: To initially explore the role of TREK-2 activation in analgesia, we evaluated 19b in the acetic acid writhing assay. Injection of acetic acid activates nociceptors directly and/or produces inflamed viscera (subdiaphragmatic organs) and subcutaneous (muscle wall) tissues. The number of writhes (characterized by contraction of the abdominal musculature and extension of the limbs) was then counted for 30 min. Analgesic effect was determined by comparing the number of writhes between in the presence of 19b or vehicle. […] At the 3 mg/kg PO dose of 19b, total brain levels are ∼3 μM and free brain in 0.92 μM and CSF levels in 0.22 μM, providing a good PK/PD relationship and supporting the data generated with the TREK activator 3.
Figure 4 Analgesic effect in acetic acid writhing assay. ICR male mice (6 weeks of age) were pretreated with vehicle (0.5 w/v% Methyl Cellulose in distilled water, PO) or 19b (= ONO-2920632) (0.3, 1, 3 mg/kg, PO) or Indomethacin (10 mg/kg, PO). […] The number of writhes (characterized by contraction of the abdominal musculature and extension of the limbs) was then counted for 30 min. Analgesic effect was determined by comparing the number of writhes between in the presence of compound and in the presence of vehicle (*; p < 0.05 by Student’s t test, #; p < 0.05 by Williams test).

Adrenergic α1A = Adrenergic α1A (Rattus norvegicus, UniProt P43140); test: Eurofins Lead Profiling radioligand binding; settings: title: 30 μM
Adrenergic α1B = Adrenergic α1B (Rattus norvegicus, UniProt P15823); test: Eurofins Lead Profiling radioligand binding; settings: title: 30 μM
Chain of Adrenergic α1B (P15823 whole entry): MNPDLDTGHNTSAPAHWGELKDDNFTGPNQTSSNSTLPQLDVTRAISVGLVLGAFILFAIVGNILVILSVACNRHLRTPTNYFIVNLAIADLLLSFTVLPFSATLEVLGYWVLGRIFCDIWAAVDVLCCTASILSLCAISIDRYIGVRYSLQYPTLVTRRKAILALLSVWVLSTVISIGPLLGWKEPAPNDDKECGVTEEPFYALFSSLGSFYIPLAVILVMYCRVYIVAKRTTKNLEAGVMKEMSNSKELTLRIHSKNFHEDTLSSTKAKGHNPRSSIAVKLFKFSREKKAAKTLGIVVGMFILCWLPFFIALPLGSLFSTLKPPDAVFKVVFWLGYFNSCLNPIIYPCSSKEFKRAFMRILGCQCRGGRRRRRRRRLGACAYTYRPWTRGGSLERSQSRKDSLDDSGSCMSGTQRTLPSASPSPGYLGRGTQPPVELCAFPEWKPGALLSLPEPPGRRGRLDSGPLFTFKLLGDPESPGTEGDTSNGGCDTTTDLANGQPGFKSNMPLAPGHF

[1] = system: Calcium Channel L-Type, Benzothiazepine; test: Eurofins Lead Profiling radioligand binding; set-up: species or system Rat; settings: title: 30 μM
[2] = system: Calcium Channel L-Type, Dihydropyridine; test: Eurofins Lead Profiling radioligand binding; set-up: species or system Rat; settings: title: 30 μM
Cannabinoid CB1 = Cannabinoid CB1 (Homo sapiens, UniProt P21554); test: Eurofins Lead Profiling radioligand binding; settings: title: 30 μM
Chain of Cannabinoid CB1 (P21554 whole entry): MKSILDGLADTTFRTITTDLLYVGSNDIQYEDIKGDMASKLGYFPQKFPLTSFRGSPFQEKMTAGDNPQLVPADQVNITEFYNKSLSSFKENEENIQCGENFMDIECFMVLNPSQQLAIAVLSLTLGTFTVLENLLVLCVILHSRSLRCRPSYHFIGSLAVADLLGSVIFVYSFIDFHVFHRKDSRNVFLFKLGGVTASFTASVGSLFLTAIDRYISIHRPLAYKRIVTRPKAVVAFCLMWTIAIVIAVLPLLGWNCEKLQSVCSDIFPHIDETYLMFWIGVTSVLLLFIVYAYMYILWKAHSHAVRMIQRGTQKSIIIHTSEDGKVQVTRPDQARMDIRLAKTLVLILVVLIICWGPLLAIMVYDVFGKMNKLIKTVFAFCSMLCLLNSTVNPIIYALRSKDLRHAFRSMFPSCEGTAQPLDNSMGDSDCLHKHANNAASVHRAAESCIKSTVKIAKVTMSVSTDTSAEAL

Dopamine D2S = Dopamine D2S (Homo sapiens, UniProt P14416); test: Eurofins Lead Profiling radioligand binding; settings: title: 30 μM
Chain of Dopamine D2S (P14416 1-414 isoform P14416-2): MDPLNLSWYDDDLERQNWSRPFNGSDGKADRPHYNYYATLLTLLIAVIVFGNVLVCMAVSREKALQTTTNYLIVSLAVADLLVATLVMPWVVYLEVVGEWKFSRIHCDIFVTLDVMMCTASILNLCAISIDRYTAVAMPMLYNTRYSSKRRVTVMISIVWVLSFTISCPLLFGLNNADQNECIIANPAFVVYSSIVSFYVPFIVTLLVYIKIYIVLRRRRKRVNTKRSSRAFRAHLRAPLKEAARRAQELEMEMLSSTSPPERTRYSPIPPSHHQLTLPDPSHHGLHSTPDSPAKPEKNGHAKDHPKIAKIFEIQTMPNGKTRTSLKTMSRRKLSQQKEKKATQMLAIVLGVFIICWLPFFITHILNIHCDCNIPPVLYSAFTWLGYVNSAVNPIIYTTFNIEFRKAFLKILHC

Dopamine D3 = Dopamine D3 (Homo sapiens, UniProt P35462); test: Eurofins Lead Profiling radioligand binding; settings: title: 30 μM
Chain of Dopamine D3 (P35462 whole entry): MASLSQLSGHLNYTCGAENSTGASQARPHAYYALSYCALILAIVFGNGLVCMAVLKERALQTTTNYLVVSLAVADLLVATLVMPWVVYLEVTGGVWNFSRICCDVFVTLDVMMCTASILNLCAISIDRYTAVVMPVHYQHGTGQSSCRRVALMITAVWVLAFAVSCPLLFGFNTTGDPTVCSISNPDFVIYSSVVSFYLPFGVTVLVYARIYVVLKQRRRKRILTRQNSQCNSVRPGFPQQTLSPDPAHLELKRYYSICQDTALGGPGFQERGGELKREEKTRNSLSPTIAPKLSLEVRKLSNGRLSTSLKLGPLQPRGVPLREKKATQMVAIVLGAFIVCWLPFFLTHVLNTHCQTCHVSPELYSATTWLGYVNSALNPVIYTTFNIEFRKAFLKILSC

Estrogen ERα = Estrogen ERα (Homo sapiens, UniProt P03372); test: Eurofins Lead Profiling radioligand binding; settings: title: 30 μM
GABAB1A = GABAB1A (Homo sapiens, UniProt Q9UBS5); test: Eurofins Lead Profiling radioligand binding; settings: title: 30 μM
Chain of GABAB1A (Q9UBS5 15-961 limits assumed): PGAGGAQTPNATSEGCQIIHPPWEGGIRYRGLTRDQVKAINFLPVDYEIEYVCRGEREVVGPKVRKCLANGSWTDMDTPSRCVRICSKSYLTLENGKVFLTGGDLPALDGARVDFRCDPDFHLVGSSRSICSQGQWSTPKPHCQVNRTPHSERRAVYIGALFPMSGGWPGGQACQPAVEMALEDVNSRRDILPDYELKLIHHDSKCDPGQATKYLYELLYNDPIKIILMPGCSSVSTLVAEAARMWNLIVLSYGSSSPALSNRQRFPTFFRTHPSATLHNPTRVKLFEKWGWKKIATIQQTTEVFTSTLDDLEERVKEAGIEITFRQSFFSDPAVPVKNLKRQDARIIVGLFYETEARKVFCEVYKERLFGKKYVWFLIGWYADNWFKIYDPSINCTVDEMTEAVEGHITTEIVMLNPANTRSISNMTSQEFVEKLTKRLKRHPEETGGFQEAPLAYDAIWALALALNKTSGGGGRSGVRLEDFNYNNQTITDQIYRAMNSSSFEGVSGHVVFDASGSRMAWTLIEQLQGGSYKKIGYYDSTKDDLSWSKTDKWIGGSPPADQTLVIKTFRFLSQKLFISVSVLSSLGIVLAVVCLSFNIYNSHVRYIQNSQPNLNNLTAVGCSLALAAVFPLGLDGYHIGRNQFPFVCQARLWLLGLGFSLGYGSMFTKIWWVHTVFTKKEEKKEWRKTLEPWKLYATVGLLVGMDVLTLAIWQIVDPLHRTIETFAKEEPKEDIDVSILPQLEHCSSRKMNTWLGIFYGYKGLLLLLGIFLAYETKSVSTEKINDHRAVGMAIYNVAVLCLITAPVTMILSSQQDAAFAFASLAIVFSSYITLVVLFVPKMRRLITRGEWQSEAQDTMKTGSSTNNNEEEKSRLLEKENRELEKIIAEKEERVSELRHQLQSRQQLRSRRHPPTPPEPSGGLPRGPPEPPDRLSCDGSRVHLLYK

Histamine H1 = Histamine H1 (Homo sapiens, UniProt P35367); test: Eurofins Lead Profiling radioligand binding; settings: title: 30 μM
Imidazoline I2, Central = test: Eurofins Lead Profiling radioligand binding; set-up: species or system Rat; settings: title: 30 μM
Neuropeptide Y Y2 = Neuropeptide Y Y2 (Homo sapiens, UniProt P49146); test: Eurofins Lead Profiling radioligand binding; settings: title: 30 μM
Chain of Neuropeptide Y Y2 (P49146 whole entry): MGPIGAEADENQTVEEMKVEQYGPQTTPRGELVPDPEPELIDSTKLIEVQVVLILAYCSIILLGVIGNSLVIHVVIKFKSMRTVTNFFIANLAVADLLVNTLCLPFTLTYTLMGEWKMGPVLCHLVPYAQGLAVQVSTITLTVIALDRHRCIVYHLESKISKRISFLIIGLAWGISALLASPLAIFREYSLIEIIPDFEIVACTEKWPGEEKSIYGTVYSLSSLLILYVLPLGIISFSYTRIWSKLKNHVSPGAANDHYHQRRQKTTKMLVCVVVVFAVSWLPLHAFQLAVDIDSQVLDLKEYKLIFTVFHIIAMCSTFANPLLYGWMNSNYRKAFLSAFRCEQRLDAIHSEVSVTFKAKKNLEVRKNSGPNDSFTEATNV

[3] = biological target: Nicotinic Acetylcholine α3β4 (Homo sapiens, UniProt P30926+P32297); test: Eurofins Lead Profiling radioligand binding; settings: title: 30 μM
[4] = biological target: Nicotinic Acetylcholine α1, Bungarotoxin (Homo sapiens, UniProt P02708+P07510+Q07001); test: Eurofins Lead Profiling radioligand binding; settings: read-out: % Inhibition at 10 µM
Purinergic P2X = test: Eurofins Lead Profiling radioligand binding; set-up: species or system Rabbit; settings: title: 30 μM
[5] = system: Purinergic P2Y, Non-Selective; test: Eurofins Lead Profiling radioligand binding; set-up: species or system Rat; settings: title: 30 μM
Serotonin (5-HT3) = Serotonin (5-HT3) (Homo sapiens, UniProt P46098); test: Eurofins Lead Profiling radioligand binding; settings: title: 30 μM
Chain of Serotonin (5-HT3) (P46098 24-478): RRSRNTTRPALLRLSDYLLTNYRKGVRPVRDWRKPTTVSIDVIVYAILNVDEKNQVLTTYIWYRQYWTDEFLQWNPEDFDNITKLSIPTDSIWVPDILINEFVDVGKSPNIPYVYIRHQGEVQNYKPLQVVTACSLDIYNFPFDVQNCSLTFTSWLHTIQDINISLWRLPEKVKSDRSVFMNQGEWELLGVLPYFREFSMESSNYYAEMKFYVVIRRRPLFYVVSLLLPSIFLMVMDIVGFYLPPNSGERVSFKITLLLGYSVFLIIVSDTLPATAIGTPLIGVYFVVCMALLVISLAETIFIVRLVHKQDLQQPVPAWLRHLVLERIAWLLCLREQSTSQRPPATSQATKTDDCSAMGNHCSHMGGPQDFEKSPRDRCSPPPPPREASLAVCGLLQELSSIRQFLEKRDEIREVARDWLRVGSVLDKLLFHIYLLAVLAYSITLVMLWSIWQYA

hERG = biological target: T1, hERG (Homo sapiens, UniProt Q12809); test: hERG thallium flux assay; format: cell-based; settings: Tl+ flux assay
T1 construct: expressed in transfected cells; host or cells: HEK293
T1 sequence (Q12809 whole entry): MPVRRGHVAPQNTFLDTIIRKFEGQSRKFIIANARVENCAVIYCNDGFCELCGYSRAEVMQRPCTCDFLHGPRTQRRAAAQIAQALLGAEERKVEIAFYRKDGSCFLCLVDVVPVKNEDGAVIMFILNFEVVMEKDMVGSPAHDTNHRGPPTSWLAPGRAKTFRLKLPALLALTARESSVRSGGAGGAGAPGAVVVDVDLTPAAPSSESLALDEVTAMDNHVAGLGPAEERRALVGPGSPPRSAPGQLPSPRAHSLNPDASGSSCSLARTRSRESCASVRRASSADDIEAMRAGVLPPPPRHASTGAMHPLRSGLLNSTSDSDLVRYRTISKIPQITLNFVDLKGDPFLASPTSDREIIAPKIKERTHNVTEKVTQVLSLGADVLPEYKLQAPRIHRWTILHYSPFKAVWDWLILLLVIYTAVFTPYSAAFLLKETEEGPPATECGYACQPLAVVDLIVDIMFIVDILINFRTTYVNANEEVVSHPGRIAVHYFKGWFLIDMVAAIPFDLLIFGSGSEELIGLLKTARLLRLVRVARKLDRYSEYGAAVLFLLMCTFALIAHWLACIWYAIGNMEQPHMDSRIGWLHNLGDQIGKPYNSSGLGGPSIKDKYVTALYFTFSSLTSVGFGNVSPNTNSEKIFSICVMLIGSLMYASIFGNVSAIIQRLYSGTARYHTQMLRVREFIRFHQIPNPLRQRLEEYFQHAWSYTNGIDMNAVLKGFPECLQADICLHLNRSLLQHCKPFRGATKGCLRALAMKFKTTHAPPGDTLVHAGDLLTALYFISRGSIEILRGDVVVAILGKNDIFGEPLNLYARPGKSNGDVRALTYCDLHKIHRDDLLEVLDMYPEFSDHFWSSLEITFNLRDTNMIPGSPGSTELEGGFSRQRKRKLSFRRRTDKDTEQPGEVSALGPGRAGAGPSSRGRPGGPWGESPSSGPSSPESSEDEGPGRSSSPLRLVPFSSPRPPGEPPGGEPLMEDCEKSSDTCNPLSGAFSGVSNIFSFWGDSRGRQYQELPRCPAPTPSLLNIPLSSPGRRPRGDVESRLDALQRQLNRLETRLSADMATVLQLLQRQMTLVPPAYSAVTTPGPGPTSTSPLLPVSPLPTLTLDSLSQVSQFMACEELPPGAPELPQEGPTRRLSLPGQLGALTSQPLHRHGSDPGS

hCav1.2 = biological target: T2, hCav1.2 (Homo sapiens, UniProt Q13936); test: Cav1.2 calcium flux assay; format: cell-based; settings: Ca2+ flux assay
T2 construct: host or cells: CHO
Experimental: % inhibition = 100 - (ΔRatio of test compound - ΔRatio of 1 µM control compound)/(ΔRatio of 0.3% DMSO - ΔRatio of 1 µM control compound)x100
Cav1.2 calcium flux assay protocol
CHO cells stably expressing human Cav1.2/b2/a2/d1 hCav1.2/CHO were purchased from ChanTest. hCav1.2/CHO were plated in 384-well plates at a density of 1.0x10^4 cells/well, and cultured overnight. After the wash by HBSS + 20 mM HEPES buffer, cells were loaded with Fluo-4 dye for 1 hour at room temperature. After the wash by HBSS + 20mM HEPES buffer, the fluorescent intensity was measured by Panoptic and test compounds, control compounds (verapamil) or 0.3% DMSO were added to each well. The change of fluorescent intensity (ΔRatio) and % inhibition to compare the efficacy and potency of test compounds were calculated using the […]
ΔRatio = (fluorescent intensity at 300 seconds after compound addition)/(average of fluorescent […]
% inhibition = 100 - (ΔRatio of test compound - ΔRatio of 10 µM control compound)/(ΔRatio of 0.3% DMSO - ΔRatio of 10 µM control compound)x100
In vitro Plasma protein binding and Brain homogenate binding: Determination of fraction unbound (f u) in plasma was conducted in vitro via equilibrium dialysis using HTDialysis (HTD) membrane plates. The top half of the plate was filled with 100 uL of Dubelco’s Phosphate Buffered Saline, pH 7.4 (DPBS). […]

How did the “analgesic effect (number of writhes)” value (ICR male mice) turn out when `O=C(NCc1ccc(OC(F)(F)F)cc1F)c1ccc2ncnn2c1` [Compound 19b] was run?
The value was “dose-dependently reduces the number of writhes; also recorded: analgesic efficacy at 3 mg/kg PO of comparable magnitude to the positive control indomethacin”.

And the “analgesic effect (number of writhes)” value (ICR male mice; listed as ONO-2920632)?
Its value is “robust, dose dependent efficacy”.

What about the inhibition (Adrenergic α1A) of the same molecule?
Its inhibition is 2%.

And the inhibition at 10 µM (Adrenergic α1B)?
The inhibition at 10 µM was 6%.

And the “% Inhibition at 10 µM” value [1]?
The value was 2%.

And the “% Inhibition at 10 µM” value [2]?
Its value is -2%.

What about the inhibition (Cannabinoid CB1) of the same molecule?
The inhibition was 17%.

And the inhibition at 10 µM (Dopamine D2S)?
The inhibition at 10 µM was 6%.

What about the inhibition (Dopamine D3) of the same molecule?
The inhibition was 13%.

And the inhibition (Estrogen ERα)?
Its inhibition is 1%.

And the inhibition (GABAB1A)?
Its inhibition is -1%.

What about the inhibition (Histamine H1) of the same molecule?
Its inhibition is 8%.

What about the “% Inhibition at 10 µM” value (Imidazoline I2, Central) of the same molecule?
The value was 2%.

And the inhibition (Neuropeptide Y Y2)?
Its inhibition is -1%.

And the inhibition [3]?
Its inhibition is -17%.

And the inhibition at 10 µM [4]?
Its inhibition at 10 µM is 20%.

And the “% Inhibition at 10 µM” value (Purinergic P2X)?
The value was 22%.

And the “% Inhibition at 10 µM” value [5]?
Its value is -7%.

What about the inhibition (Serotonin (5-HT3)) of the same molecule?
The inhibition was 4%.

Which IC50 (hERG) does the source give for `O=C(NCc1ccc(OC(F)(F)F)cc1Cl)c1ccc2nncn2c1` [Compound 20] here?
Its IC50 is > 30 µM.

What about the IC50 (hCav1.2) of the same molecule?
Its IC50 is > 30 µM.
